The record followed here is patent US9296734B2 (AMGEN INC., priority 2013, dated 2016).

One experiment addresses Cathepsin D (Cat D) (Homo sapiens (Human), UniProt P07339). The experiment in a line: In vitro enzymatic Cathepsin D (Cat D) FRET assay. Conditions: read-out: CatD IC50. The class given is biochemical. An outline of the steps:
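CHO-expressed recombinant Cat D cleaves a fluorophore/quencher FRET peptide (20 nM) in 0.05 M citrate pH 3.5, 5 mM CHAPS, 10% DMSO final, over 1 h. Tris addition neutralizes pH to stop the reaction; fluorescence read at excitation 500 nm, emission 580 nm.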

The target in experiment [1] is Beta Secretase enzyme (BACE) (Homo sapiens (Human), UniProt P56817). As to the kind of experiment: In vitro enzymatic BACE FRET assay. The class given is biochemical. Conditions: read-out: BACE 1 FRET assay IC50. An outline of the steps:
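Reactions ran in 0.05 M acetate pH 4.2 with 10% DMSO final and 100 uM genapol. They were started with 50 nM peptide FRET substrate (fluorophore and quencher flanking the BACE cleavage site) and incubated one hour. Tris addition raised the pH to neutral to stop the reaction before fluorescence reading.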

For experiment [2], the system named is Aβ40 in conditioned medium of cells stably expressing Amyloid Precursor Protein (APP). The experiment in a line: In vitro BACE cell-based assay (Aβ40 sandwich ELISA). The settings on record: Homo sapiens. The method in brief: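 Secreted Aβ40 was quantified by sandwich ELISA (pAb40 capture, biotinylated 6E10 detection, Europium time-resolved fluorescence). IC50 derived from percent inhibition versus concentration.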
For orientation: ELISA stands for enzyme-linked immunosorbent assay.

The mark [3] stands for this setting: average IC50, cathepsin D enzyme assay.
[4] abbreviates: average IC50, BACE enzyme assay.
Setting [5] is: HEK293, average IC50, HEK cell assay, read-out: HEK cell assay IC50.
Setting [6] is: HEK293, HEK cells, average, read-out: HEK cell assay IC50.
Where [7] appears, read: HEK293, average IC50, HEK cells, read-out: HEK cell assay IC50.

Read-outs that look alike come from different tables or passages of the source. Bounds are passed on as bounds.

Sequence of Beta Secretase enzyme (BACE) (P56817 46-501): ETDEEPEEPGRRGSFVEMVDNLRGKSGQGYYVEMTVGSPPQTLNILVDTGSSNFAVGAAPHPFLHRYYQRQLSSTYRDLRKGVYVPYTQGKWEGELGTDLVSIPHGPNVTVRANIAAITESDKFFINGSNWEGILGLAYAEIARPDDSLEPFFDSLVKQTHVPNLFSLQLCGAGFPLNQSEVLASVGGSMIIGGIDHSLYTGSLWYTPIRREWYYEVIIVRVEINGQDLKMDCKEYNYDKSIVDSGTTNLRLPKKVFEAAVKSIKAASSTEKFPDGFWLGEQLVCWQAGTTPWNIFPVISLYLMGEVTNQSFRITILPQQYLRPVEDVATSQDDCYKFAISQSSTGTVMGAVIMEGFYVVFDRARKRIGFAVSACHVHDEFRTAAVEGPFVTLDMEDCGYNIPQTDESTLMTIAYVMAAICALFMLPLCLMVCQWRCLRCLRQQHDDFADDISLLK
Sequence of Cathepsin D (Cat D) (P07339 65-412, species assumed): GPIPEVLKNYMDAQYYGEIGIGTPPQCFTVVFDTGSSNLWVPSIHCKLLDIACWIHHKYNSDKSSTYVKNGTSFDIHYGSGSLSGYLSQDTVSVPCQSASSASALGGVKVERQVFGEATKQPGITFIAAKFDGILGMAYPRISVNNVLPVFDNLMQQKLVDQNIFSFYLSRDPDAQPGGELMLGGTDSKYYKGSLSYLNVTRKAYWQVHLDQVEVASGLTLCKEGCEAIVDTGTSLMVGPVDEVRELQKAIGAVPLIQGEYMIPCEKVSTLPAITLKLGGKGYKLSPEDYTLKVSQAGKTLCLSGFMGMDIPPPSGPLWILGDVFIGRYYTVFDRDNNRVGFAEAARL

Regarding `C[Si](C)(C)C#Cc1ccc(-c2ccc(F)c([C@]3(CF)C[C@@H](C(F)(F)F)OC(N)=N3)c2)cn1` [Example 111, (4S,6S)-4-(2-fluoro-5-(6-((trimethylsilyl)ethynyl)pyridin-3-yl)phenyl)-4-(fluoromethyl)-6-(trifluoromethyl)-5,6-dihydro-4H-1,3-oxazin-2-amine], the half-inhibitory concentration (IC50) – broadly, the midpoint of a concentration-inhibition curve – is above 400 µM at Cathepsin D (Cat D) (setting [3]); 37.2 µM in experiment [1] (setting [4]); above 15.6 µM in experiment [2] (HEK293, read-out: HEK cell assay IC50).

As to `C#Cc1ccc(-c2ccc(F)c([C@]3(CF)C[C@@H](C(F)(F)F)OC(N)=N3)c2)cn1` [Example 112, (4S,6S)-4-(5-(6-ethynylpyridin-3-yl)-2-fluorophenyl)-4-(fluoromethyl)-6-(trifluoromethyl)-5,6-dihydro-4H-1,3-oxazin-2-amine], the IC50 at Cathepsin D (Cat D) (setting [3]) was above 400 µM; in experiment [1] (setting [4]) it was above 40 µM; in experiment [2] (setting [5]), above 15.6 µM.

Turning to `CC#Cc1ccc(-c2ccc(F)c([C@]3(CF)C[C@@H](C(F)(F)F)OC(N)=N3)c2)cn1` [Example 113, (4S,6S)-4-(2-fluoro-5-(6-(prop-1-yn-1-yl)pyridin-3-yl)phenyl)-4-(fluoromethyl)-6-(trifluoromethyl)-5,6-dihydro-4H-1,3-oxazin-2-amine], the figures for the concentration for half-maximal inhibition (IC50) (on Cathepsin D (Cat D) (setting [3]); in experiment [1] (setting [4]); in experiment [2] (setting [5])) were 170 µM, 27.4 µM and above 15.6 µM, respectively.

As to `NC1=N[C@](CF)(c2cc(-c3ncc4cc(F)ccc4n3)ccc2F)C[C@@H](C(F)(F)F)O1` [Example 114, (4S,6S)-4-(2-fluoro-5-(6-fluoroquinazolin-2-yl)phenyl)-4-(fluoromethyl)-6-(trifluoromethyl)-5,6-dihydro-4H-1,3-oxazin-2-amine], the figures for the half-inhibitory concentration (IC50) (on Cathepsin D (Cat D) (setting [3]); in experiment [1] (setting [4]); in experiment [2] (setting [5])) were 758 µM, above 40 µM and above 15.6 µM, respectively.

For the molecule `NC1=N[C@](CF)(c2cc(Nc3cc(-c4ccccc4)ccn3)ccc2F)C[C@@H](C(F)(F)F)O1` [Example 115, (4S,6S)-4-(2-fluoro-5-((4-phenylpyridin-2-yl)amino)phenyl)-4-(fluoromethyl)-6-(trifluoromethyl)-5,6-dihydro-4H-1,3-oxazin-2-amine], the IC50 was found to be 316 µM at Cathepsin D (Cat D) (setting [3]), 7.88 µM in experiment [1] (setting [4]) and 3.16 µM in experiment [2] (setting [5]).

Consider `NC1=N[C@](CF)(c2cc(-c3ccc4cc(F)ccc4n3)ccc2F)C[C@@H](C(F)(F)F)O1` [Example 116, (4S,6S)-4-(2-fluoro-5-(6-fluoroquinolin-2-yl)phenyl)-4-(fluoromethyl)-6-(trifluoromethyl)-5,6-dihydro-4H-1,3-oxazin-2-amine], for which the IC50 at Cathepsin D (Cat D) (setting [3]) is above 133 µM; in experiment [1] (setting [4]) it was above 40 µM; in experiment [2] (setting [5]), above 15.6 µM.

Turning to `NC1=N[C@](CF)(c2cc(-c3ccc4ccc(F)cc4n3)ccc2F)C[C@@H](C(F)(F)F)O1` [Example 117, (4S,6S)-4-(2-fluoro-5-(7-fluoroquinolin-2-yl)phenyl)-4-(fluoromethyl)-6-(trifluoromethyl)-5,6-dihydro-4H-1,3-oxazin-2-amine], the results for the IC50 (on Cathepsin D (Cat D) (setting [3]); in experiment [1] (setting [4]); in experiment [2] (setting [5])) were above 133 µM, above 40 µM and above 15.6 µM, respectively.

On to `NC1=N[C@](CF)(c2cc(-c3cncc(-c4nnco4)c3)ccc2F)C[C@@H](C(F)(F)F)O1` [Example 118, (4S,6S)-4-(5-(5-(1,3,4-oxadiazol-2-yl)pyridin-3-yl)-2-fluorophenyl)-4-(fluoromethyl)-6-(trifluoromethyl)-5,6-dihydro-4H-1,3-oxazin-2-amine], for which the concentration for half-maximal inhibition (IC50) was 454 µM on Cathepsin D (Cat D) (setting [3]), 8.36 µM in experiment [1] (setting [4]) and above 15.6 µM in experiment [2] (setting [5]).

In the case of `COC1CCN(C(=O)Nc2ccc(F)c([C@]3(C)C[C@@H](C(F)(F)F)OC(N)=N3)c2)CC1` [Example 119, N-(3-((4S,6S)-2-amino-4-methyl-6-(trifluoromethyl)-5,6-dihydro-4H-1,3-oxazin-4-yl)-4-fluorophenyl)-4-methoxypiperidine-1-carboxamide], the IC50 on Cathepsin D (Cat D) (setting [3]) is above 400 µM; in experiment [1] (setting [4]) it was 55.8 µM; in experiment [2] (setting [5]), 2.08 µM.

On to `C[C@@]1(c2cc(NC(=O)N3CC=CCC3)ccc2F)C[C@@H](C(F)(F)F)OC(N)=N1` [Example 123, N-(3-((4S,6S)-2-amino-4-methyl-6-(trifluoromethyl)-5,6-dihydro-4H-1,3-oxazin-4-yl)-4-fluorophenyl)-5,6-dihydropyridine-1(2H)-carboxamide], for which the IC50 was above 400 µM at Cathepsin D (Cat D) (setting [3]), 11.5 µM in experiment [1] (setting [4]) and 0.908 µM in experiment [2] (setting [5]).

On to `N#Cc1ccc(C#Cc2ccc(F)c([C@]3(CF)C[C@@H](C(F)(F)F)OC(N)=N3)c2)nc1` [Example 125, 6-((3-((4S,6S)-2-amino-4-(fluoromethyl)-6-(trifluoromethyl)-5,6-dihydro-4H-1,3-oxazin-4-yl)-4-fluorophenyl)ethynyl)nicotinonitrile], for which the IC50 at Cathepsin D (Cat D) (average) was above 400 µM; in experiment [1] (average) it was 0.509 µM; in experiment [2] (setting [6]) it was 0.509 µM.

`CNC(=O)c1ccc(C#Cc2ccc(F)c([C@]3(CF)C[C@@H](C(F)(F)F)OC(N)=N3)c2)nc1` [Example 126, 6-((3-((4S,6S)-2-amino-4-(fluoromethyl)-6-(trifluoromethyl)-5,6-dihydro-4H-1,3-oxazin-4-yl)-4-fluorophenyl)ethynyl)-N-methylnicotinamide]: the results for the IC50 (at Cathepsin D (Cat D) (average); in experiment [1] (average); in experiment [2] (setting [6])) were above 400 µM, 26.6 µM and 7.46 µM, respectively.

Regarding `NC1=N[C@](CF)(c2cc(C#Cc3ccc(OC4CCC4)cn3)ccc2F)C[C@@H](C(F)(F)F)O1` [Example 128, (4S,6S)-4-(5-((5-cyclobutoxypyridin-2-yl)ethynyl)-2-fluorophenyl)-4-(fluoromethyl)-6-(trifluoromethyl)-5,6-dihydro-4H-1,3-oxazin-2-amine], the IC50 at Cathepsin D (Cat D) (average) is 1060 µM; in experiment [1] (average) it was 20.5 µM; in experiment [2] (setting [6]) it was 5.98 µM.

For the molecule `CNC(=O)c1ccnc(C#Cc2ccc(F)c([C@]3(CF)C[C@@H](C(F)(F)F)OC(N)=N3)c2)c1` [Example 129, 2-((3-((4S,6S)-2-amino-4-(fluoromethyl)-6-(trifluoromethyl)-5,6-dihydro-4H-1,3-oxazin-4-yl)-4-fluorophenyl)ethynyl)-N-methylisonicotinamide], the IC50 was above 400 µM on Cathepsin D (Cat D) (average), above 40 µM in experiment [1] (average) and above 15.6 µM in experiment [2] (setting [6]).

Regarding `NC1=N[C@](CF)(c2cc(C#Cc3cccc4[nH]ccc34)ccc2F)C[C@@H](C(F)(F)F)O1` [Example 130, (4S,6S)-4-(5-((1H-indol-4-yl)ethynyl)-2-fluorophenyl)-4-(fluoromethyl)-6-(trifluoromethyl)-5,6-dihydro-4H-1,3-oxazin-2-amine], the IC50 was determined as 578 µM at Cathepsin D (Cat D) (average), 5.62 µM in experiment [1] (average) and 2.08 µM in experiment [2] (setting [6]).

As for `NC1=N[C@](CF)(c2cc(C#Cc3ccc4[nH]ccc4c3)ccc2F)C[C@@H](C(F)(F)F)O1` [Example 131, (4S,6S)-4-(5-((1H-indol-5-yl)ethynyl)-2-fluorophenyl)-4-(fluoromethyl)-6-(trifluoromethyl)-5,6-dihydro-4H-1,3-oxazin-2-amine], the IC50 on Cathepsin D (Cat D) (average) was found to be 381 µM; in experiment [1] (average), 0.577 µM; in experiment [2] (setting [6]) it was 1.81 µM.

Turning to `NC1=N[C@](CF)(c2cc(C#Cc3ccc4cc[nH]c4c3)ccc2F)C[C@@H](C(F)(F)F)O1` [Example 132, (4S,6S)-4-(5-((1H-indol-6-yl)ethynyl)-2-fluorophenyl)-4-(fluoromethyl)-6-(trifluoromethyl)-5,6-dihydro-4H-1,3-oxazin-2-amine], the values for the 50% inhibitory concentration (IC50) (at Cathepsin D (Cat D) (average); in experiment [1] (average); in experiment [2] (setting [6])) were 721 µM, 2.2 µM and 3.1 µM, respectively.

For `NC1=N[C@](CF)(c2cc(C#Cc3cccc4cc[nH]c34)ccc2F)C[C@@H](C(F)(F)F)O1` [Example 133, (4S,6S)-4-(5-((1H-indol-7-yl)ethynyl)-2-fluorophenyl)-4-(fluoromethyl)-6-(trifluoromethyl)-5,6-dihydro-4H-1,3-oxazin-2-amine], the IC50 is 1130 µM at Cathepsin D (Cat D) (average), 5.6 µM in experiment [1] (average) and 4.6 µM in experiment [2] (setting [6]).

Regarding `N#Cc1ccc(C(=O)Nc2ccc(F)c([C@]3(CF)C[C@@H](C(F)(F)F)OC(N)=N3)n2)nc1` [Example 134, N-(6-((4S,6S)-2-amino-4-(fluoromethyl)-6-(trifluoromethyl)-5,6-dihydro-4H-1,3-oxazin-4-yl)-5-fluoropyridin-2-yl)-5-cyanopicolinamide], the IC50 on Cathepsin D (Cat D) (setting [3]) is above 400 µM; in experiment [1] (setting [4]) it was 0.079 µM; in experiment [2] (setting [5]), 0.055 µM.

As for `NC1=N[C@](CF)(c2nc(NC(=O)c3ccc(Cl)cn3)ccc2F)C[C@@H](C(F)(F)F)O1` [Example 136, N-(6-((4S,6S)-2-amino-4-(fluoromethyl)-6-(trifluoromethyl)-5,6-dihydro-4H-1,3-oxazin-4-yl)-5-fluoropyridin-2-yl)-5-chloropicolinamide], the half-inhibitory concentration (IC50) at Cathepsin D (Cat D) (setting [3]) is 717 µM; on Cathepsin D (Cat D) (average IC50), above 400 µM; in experiment [1] (setting [4]), 0.169 µM; in experiment [1] (average IC50), 32 µM; in experiment [2] (setting [5]) it was 0.132 µM; in experiment [2] (setting [7]) it was above 15.6 µM.

With `NC1=N[C@](CF)(c2cc(N)cnc2F)C[C@@H](C(F)(F)F)O1` [Example 138, (4S,6S)-4-(5-amino-2-fluoropyridin-3-yl)-4-(fluoromethyl)-6-(trifluoromethyl)-5,6-dihydro-4H-1,3-oxazin-2-amine], the IC50 is above 400 µM on Cathepsin D (Cat D) (average IC50), above 40 µM in experiment [1] (average IC50) and above 15.6 µM in experiment [2] (setting [7]).
